In US6083951A, “Aryl-substituted pyrimidine sulphonamide compounds as endothelin antagonists” (Zeneca Limited, priority 1994, dated 2000):

Key:
[1] = tested on: Human ETA or ETB receptors; experiment: Test A: inhibition of [125I]-Endothelin-1 binding to MEL cell membranes expressing recombinant receptor; details: [125I]-Endothelin-1 30 pM, receptor subtype (ETA or ETB) not stated
Text: The endothelin receptor antagonist activity of compounds of formula I may be assessed in vitro by their ability to inhibit binding of [^125 I]-Endothelin-1 to its receptors. Human ETA or ETB receptors (sub-types of the endothelin receptor) were expressed in Mouse Erythroleukemic Cells (MEL cells) by using standard molecular techniques (for example, as described by Sambrook J., Fritsch E. F. & Maniatis T. (1989) Molecular Cloning: A Laboratory Manual, 2nd Edition, Cold Spring Harbor Press, U.S.A.). cDNA sequences encoding the human ETA and ETB receptor (Hosoda K. et al (1991), FEBS Lett., 287, 23-26 and Sakamoto A. et al, (1991), Biochem. Biophys Res. Comm., 178, 656-663) are subcloned into pBluescript vector followed by insertion into the MEL cell expression vector pEV as described by Needham et al (1992), Nuc. Acids Res., 20, 997-1003. […]
[^125 I]-Endothelin-1 binding to MEL cell membranes was measured in incubation buffer containing 50 mM Tris HCl, 1 mM CaCl2, 0.05% polyoxyethylenesorbitan monolaurate, 0.1% Bovine Serum Albumin (BSA), 0.02% sodium azide pH 7.4 at 30° C. after 180 minutes incubation. […] Nonspecific binding was measured in the presence of 100 nM unlabelled Endothelin-1. […] The filter discs were punched out and counted in a gamma counter. Compounds are tested in triplicate over a range of concentrations and IC50 (or pIC50) values calculated.

[2] = tested on: guinea-pig isolated taenia coli; experiment: Test B: inhibition of the relaxant response to endothelin-1 in isolated tissue; type: cell-based; details: antagonism of endothelin-1 relaxation, pA2 from concentration ratio
Method: The endothelin receptor antagonist activity of compounds of formula I may be assessed in vitro in isolated tissues by their ability to inhibit the relaxant response to endothelin-1 in the guinea-pig isolated taenia coli. Guinea pigs of either sex and weight >250 g are killed by cervical dislocation and the caecum removed and placed in cold oxygenated Krebs solution. Strips of Taenia coli are dissected out and approximately 4 cm lengths set up for isotonic recording in a 20 ml organ bath containing oxygenated Krebs solution at 32° C. After a 90-120 minute equilibration period to allow the tissue to spontaneously develop an increased tone, a cumulative concentration-response curve (relaxation) is constructed to endothelin-1 (0.3-10 nM). The tissue is then washed for a period of at least 90 minutes before construction of a second concentration-response curve to endothelin-1 in the presence of the test compound. The test compound is added to the organ bath (at an initial concentration of 20 μM) at least 30 minutes before constructing the second concentration-response curve to endothelin-1. The endothelin-1 concentration ratio for each experiment is determined by comparing the most parallel portions of the control and drug treated concentration-response curves. From this a pA2 is calculated: pA2 =-log[molar drug concentration]+log[concentration ratio-1].

Compound: CN(C)c1cccc2c(S(=O)(=O)Nc3ccc(Cl)nn3)cccc12 [Example 1, 5-(dimethylamino)-N-(6-chloro-3-pyridazinyl)-1-naphthalenesulphonamide]
- pIC50 in test A [1]: 6.7
- pA2 in test B [2]: 6.8
